Data on one compound can be found in patent US8394832B2, “Methods and compositions using immunomodulatory compounds for the treatment of immunodeficiency disorders” (Celgene Corporation, priority 2004, dated 2013).

One experiment deals with IgE synthesis. Description: IgE ELISA of human PBMC treated with anti CD40 and IL-4 for three weeks. The format is cell-based. The following applies: 504 h, human PBMCs in presence of CD40+IL-4 for three weeks (FIGS. 11A and B), read-out: IC50 of inhibition of IgE synthesis. As to the method: Human PBMCs (1×10^6/ml) were treated with immunomodulatory compounds in presence of anti-CD40 (2 ug/ml) and IL-4 (40 ng/ml) for three weeks. Fifty microliter of supernatant was used for IgE ELISA, following the manufacturer's instruction. The absorbance was read by ELISA reader at OD=450 nm.
IL-4 is a unique signal for B cells to produce IgE during the immunoglobulin class switch. To assess whether immunomodulatory compounds can regulated IgE synthesis, 1,3-dioxo-(2,6-dioxopiperidin-3-yl)-4-aminoisoindoline or 1-oxo-(2,6-dioxopiperidin-3-yl)-4-aminoisoindoline was incubated with human PBMCs in presence of CD40+IL-4 for three weeks. […] (FIGS. 11A and B).
Treatment of PBMC: 200 μl of 1×10^6/ml human PBMC were plated in 96 well plate, and the cells were pretreated with IMiDs at indicated concentrations (60, 6, 0.6, 0.06, 0.006, 0.0006 uM) for 30 minutes. Anti CD40 (#AHS4002, Biosource, 2 μg/ml) and IL-4 (#200-04, Pepro Tech, 40 ng/ml) were added to each well. Human PBMC in presence of IMiDs, anti CD40 and IL-4 were incubated for three weeks. Fifty microliters of supernatant was subjected to IgE ELISA.
IgE ELISA: The IgE ELISA Quantitation Kit was purchased from Bethyl Laboratories, Inc. (#E80-108). […] The ELISA plate was read at OD=450 nm in ELISA plate reader.
On the technique in general: An ELISA detects its analyte on a solid surface through an enzyme-linked reagent.

The next experiment relates to CD40. Description: FACS analysis of CD40 expression on B cells. The format is cell-based, human. The procedure: Human buffy coat (50 ml) was diluted with 50 ml sterile PBS (Ca^++, Mg^++ free), and mixed gently. A 25 ml aliquot of diluted buffy coat was transferred to each 50 ml centrifuge tube, and Histopaque-1077 (14 ml, #1077-1, Sigma) was gently layered into the bottom of the tube. The sample was centrifuged at 2,000 rpm for 30 min at room temperature. The interface containing mononuclear cells was transferred into 50 ml centrifuge tube, and washed once with PBS (1200 rpm, 5 min). The supernatant was discarded. Cell pellet was resuspended in Miltenyi buffer. Anti-CD19^+ microbeads were added to the suspension (10^7 cells in 80 μl of buffer, 20 μl antibody beads for 10^7 cells) and incubated for 15 min at 4° C. Cell pellet was washed once and resuspended in 1 ml Miltenyi buffer. The cell suspension was added to the magnetic column, washed with 10 ml Miltenyi buffer in the column. CD19^+ cells are released by 1 ml Miltenyi Buffer without magnetic field. CD19^+ cells were washed twice with RPMI complete medium. B cells (2×10^5) were plated in 96 well plate. […]
In addition to the suppression of IL-4 induced proliferation, CD40+IL-4 induced HLA-DR expression was also examined. B cells were treated by 1,3-dioxo-(2,6-dioxopiperidin-3-yl)-4-aminoisoindoline with CD40L+IL-4 for 72 hours, and the cell surface expression markers CD40 and HLA-DR were measured by FACS. […]
Background: In flow cytometry, cells or beads pass a laser one at a time.

A further experiment relates to CD69. The experiment in a line: FACS analysis of CD69 expression in CD19+ B cells. The class given is cell-based, human. As to the method: (§1) Human buffy coat (50 ml) was diluted with 50 ml sterile PBS (Ca^++, Mg^++ free), and mixed gently. A 25 ml aliquot of diluted buffy coat was transferred to each 50 ml centrifuge tube, and Histopaque-1077 (14 ml, #1077-1, Sigma) was gently layered into the bottom of the tube. The sample was centrifuged at 2,000 rpm for 30 min at room temperature. The interface containing mononuclear cells was transferred into 50 ml centrifuge tube, and washed once with PBS (1200 rpm, 5 min). The supernatant was discarded. Cell pellet was resuspended in Miltenyi buffer. Anti-CD19^+ microbeads were added to the suspension (10^7 cells in 80 μl of buffer, 20 μl antibody beads for 10^7 cells) and incubated for 15 min at 4° C. Cell pellet was washed once and resuspended in 1 ml Miltenyi buffer. The cell suspension was added to the magnetic column, washed with 10 ml Miltenyi buffer in the column. CD19^+ cells are released by 1 ml Miltenyi Buffer without magnetic field. CD19^+ cells were washed twice with RPMI complete medium. B cells (2×10^5) were plated in 96 well plate.
B cells were treated with 1,3-dioxo-(2,6-dioxopiperidin-3-yl)-4-aminoisoindoline (FIG. 3A) or 1-oxo-(2,6-dioxopiperidin-3-yl)-4-aminoisoindoline (FIG. 3B) in presence of anti IgM, anti CD40 and IL-4 for 3 days. The suspension of B cells was washed by PBS once, and incubated with FITC conjugated anti human CD69 for 30 min in the dark. B cells were subject to FACS analysis using flow cytometer (EPICS XL-MCL, Beckman Coulter Company).
To assess whether the effects of immunomodulatory compounds on IL-4 signaling impact on IL-4 mediated B cell activation, FACS array of immediate early expression marker CD69 expression at triplicates and six doses was examined using 1,3-dioxo-(2,6dioxopiperidin-3-yl)-4-aminoisoindoline or 1-oxo-(2,6-dioxopiperidin-3-yl)-4-aminoisoindoline. […] Thus, it is clear that immunomodulatory compounds have no impact on this process.

The subject of another experiment is IL-6. Description: Measurement of cytokine IL-6 by Luminex in B cells. The format is cell-based, human. The procedure: as §1
B cells were treated with 1,3-dioxo-(2,6-dioxopiperidin-3-yl)-4-aminoisoindoline at 60 μM, 6 μM, 0.6 μM, 0.06 μM, 0.006 μM and 0.0006 μM in presence of anti IgM, anti CD40 and IL-4 for 3 days. Supernatant (25 μl) was collected and incubated with 25 μl anti IL-6 beads for about 1 hour. […] The plate was read on Bio-Plex instrument (Bio-Rad).

Structures are written as SMILES.

Regarding `Nc1cccc2c1C(=O)N(C1CCC(=O)NC1=O)C2=O` (stereo not shown) [1,3-dioxo-(2,6-dioxopiperidin-3-yl)-4-aminoisoindoline], the IC50 in the experiment on IgE synthesis lay within 100 to 300 nM. Besides, the “increase of CD40 expression” value in the experiment with CD40 (B cells treated with BAFF (FIG. 11F)) is on record as 60%. Moreover, in the experiment with CD40 (B cells treated with BAFF or LPS, 1 μM, 3 days (FIG. 2A)), the CD40 expression entry is “upregulated”. Also, the CD69 expression result with CD69 (CD19+ B cells treated with anti human IgM, anti human CD40 and IL-4, 3 days (FIGS. 3A, 3B)) is recorded as “dose-dependently enhanced”; in the experiment with CD69 (IL-4 stimulated CD19+ B cells, triplicates, six doses (FIGS. 10A and B)), “neither immunomodulatory compound inhibited”. Besides, the IL-6 expression result was “did not enhance” in the experiment with IL-6 (compound alone (FIG. 5A)); “enhanced” in the experiment on IL-6 (in combination with anti IgM, anti CD40 and IL-4, 3 days, 0.0006-60 μM (FIG. 5B)).

As usually defined, the IC50 is the concentration that inhibits the measured activity by half.
